Measured values reported in US20240158393A1, “PYRIDONE COMPOUNDS AND METHODS OF USE” (Exelixis, Inc., priority 2021, published 2024).
Structures can show the parent of a compound that is named as a salt.

Legend:
Human Axl = target: T1, Human Axl (Homo sapiens, UniProt P30530); experiment: Human AXL kinase assay (33P radiometric / HTRF KinEase); type: biochemical; details: protocols of Examples A-1 and/or A-2
T1 construct: Human AXL (residues 464-885)
T1 sequence (P30530 1-894 Q764R): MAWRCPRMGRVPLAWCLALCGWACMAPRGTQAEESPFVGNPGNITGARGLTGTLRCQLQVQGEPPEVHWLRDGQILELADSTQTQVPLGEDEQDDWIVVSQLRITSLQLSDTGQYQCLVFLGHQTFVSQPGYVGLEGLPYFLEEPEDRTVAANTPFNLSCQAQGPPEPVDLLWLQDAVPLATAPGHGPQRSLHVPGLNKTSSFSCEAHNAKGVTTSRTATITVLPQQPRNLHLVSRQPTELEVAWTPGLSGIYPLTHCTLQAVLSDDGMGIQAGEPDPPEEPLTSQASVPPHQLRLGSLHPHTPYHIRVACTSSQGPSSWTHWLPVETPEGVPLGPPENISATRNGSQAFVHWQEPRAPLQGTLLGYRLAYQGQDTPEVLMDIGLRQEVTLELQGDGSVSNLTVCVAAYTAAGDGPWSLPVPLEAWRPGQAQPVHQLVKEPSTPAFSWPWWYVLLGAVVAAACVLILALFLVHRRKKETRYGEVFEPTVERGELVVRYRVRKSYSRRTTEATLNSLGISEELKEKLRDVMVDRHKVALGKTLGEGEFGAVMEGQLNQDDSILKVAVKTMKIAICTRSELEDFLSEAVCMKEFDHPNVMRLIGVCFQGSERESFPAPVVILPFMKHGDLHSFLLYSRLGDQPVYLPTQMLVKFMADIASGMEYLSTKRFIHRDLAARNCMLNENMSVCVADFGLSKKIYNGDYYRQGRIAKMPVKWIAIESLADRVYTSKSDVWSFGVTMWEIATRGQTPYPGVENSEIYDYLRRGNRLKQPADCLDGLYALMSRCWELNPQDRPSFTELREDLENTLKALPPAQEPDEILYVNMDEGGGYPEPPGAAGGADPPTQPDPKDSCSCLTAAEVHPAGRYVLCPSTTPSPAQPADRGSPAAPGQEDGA

Human KDR = target: T2, Human KDR (Homo sapiens, UniProt P35968); experiment: Human KDR kinase assay (33P radiometric / HTRF KinEase); type: biochemical; details: protocols of Examples B-1 and/or B-2
T2 construct: Human KDR (residues K790-V1356, 55 nM); purchased Eurofins Pharma Discovery Services UK Limited (KinaseProfiler, B-1) and/or CarnaBio (B-2)
Outline: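 Radiometric: KDR K790-V1356 (55 nM), MOPS pH 7.0, myelin basic protein, 10 μM [γ-33P]ATP, 40 min at room temperature, filter-bound 33P counted; nine half-log doses, top 1 μM. HTRF: KDR 790-1356, 1 μM biotinylated peptide, ATP at Km (4.0 μM), 40 min, 10 doses. IC50 from logistic fits.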

T2 sequence (P35968 790-1356): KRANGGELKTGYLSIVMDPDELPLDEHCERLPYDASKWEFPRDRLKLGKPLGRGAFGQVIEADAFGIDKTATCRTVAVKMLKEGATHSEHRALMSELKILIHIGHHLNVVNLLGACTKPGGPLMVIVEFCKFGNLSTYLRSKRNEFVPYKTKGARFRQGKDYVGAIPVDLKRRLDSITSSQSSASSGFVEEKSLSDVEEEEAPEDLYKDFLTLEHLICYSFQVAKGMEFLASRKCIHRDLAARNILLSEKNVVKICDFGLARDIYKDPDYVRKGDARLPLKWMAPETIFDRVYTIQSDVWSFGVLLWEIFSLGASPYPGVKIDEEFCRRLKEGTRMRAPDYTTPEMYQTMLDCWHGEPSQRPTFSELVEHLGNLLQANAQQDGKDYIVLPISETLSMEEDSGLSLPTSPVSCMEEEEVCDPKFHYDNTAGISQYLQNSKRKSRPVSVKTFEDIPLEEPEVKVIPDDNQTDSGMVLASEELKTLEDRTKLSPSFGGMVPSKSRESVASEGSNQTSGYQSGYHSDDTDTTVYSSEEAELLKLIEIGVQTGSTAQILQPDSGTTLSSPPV

| Compound | IC50 (Human Axl) [nM] | IC50 (Human KDR) [nM] |
| --- | --- | --- |
| C=C(C)c1c(C)n(C)c(C)c(C(=O)Nc2ccc(Oc3ccnc4cc(OC)c(OC)nc34)c(F)c2)c1=O [Compound 52, N-[4-[(6,7-Dimethoxy-1,5-naphthyridin-4-yl)oxy]-3-fluorophenyl]-1,2,6-trimethyl-4-oxo-5-prop-1-en-2-ylpyridine-3-carboxamide] | ≤ 100 | > 300 |
| COc1cc2nccc(Oc3ccc(NC(=O)c4c(C)n(C)c(C)c(C5=CCOCC5)c4=O)cc3F)c2nc1OC [Compound 53, 5-(3,6-Dihydro-2H-pyran-4-yl)-N-[4-[(6,7-dimethoxy-1,5-naphthyridin-4-yl)oxy]-3-fluorophenyl]-1,2,6-trimethyl-4-oxopyridine-3-carboxamide] | ≤ 100 | > 300 |
| COCCOc1cc2nccc(Oc3ccc(NC(=O)c4c(C)n(C)c(C)c(/C=C/C5CCCC5)c4=O)cc3F)c2nc1OC [Compound 54, 5-[(E)-2-Cyclopentylethenyl]-N-[3-fluoro-4-[[6-methoxy-7-(2-methoxyethoxy)-1,5-naphthyridin-4-yl]oxy]phenyl]-1,2,6-trimethyl-4-oxopyridine-3-carboxamide] | ≤ 100 | 100 to 300 |
| C=C(C)c1c(C)n(C)c(C)c(C(=O)Nc2ccc(Oc3ccnc4cc(OC)c(OC)nc34)cc2)c1=O [Compound 55, N-[4-[(6,7-Dimethoxy-1,5-naphthyridin-4-yl)oxy]phenyl]-1,2,6-trimethyl-4-oxo-5-prop-1-en-2-ylpyridine-3-carboxamide] | ≤ 100 | > 300 |
| COCCOc1cc2nccc(Oc3ccc(NC(=O)c4c(C)n(C)c(C)c(C5=CCCCC5)c4=O)cc3F)c2nc1OC [Compound 58, 5-(Cyclohexen-1-yl)-N-[3-fluoro-4-[[6-methoxy-7-(2-methoxyethoxy)-1,5-naphthyridin-4-yl]oxy]phenyl]-1,2,6-trimethyl-4-oxopyridine-3-carboxamide] | ≤ 100 | ≤ 100 |
| COCCOc1cnc2c(Oc3ccc(NC(=O)c4c(C)n(C)c(C)c(C5=CCCC5)c4=O)cc3F)ccnc2c1 [Compound 65, 5-(Cyclopenten-1-yl)-N-[3-fluoro-4-[[7-(2-methoxyethoxy)-1,5-naphthyridin-4-yl]oxy]phenyl]-1,2,6-trimethyl-4-oxopyridine-3-carboxamide] | ≤ 100 | 100 to 300 |
| COCCOc1cnc2c(Oc3ccc(NC(=O)c4c(C)n(C)c(C)c(C5=CCCCC5)c4=O)cc3F)ccnc2c1 [Compound 66, 5-(Cyclohexen-1-yl)-N-[3-fluoro-4-[[7-(2-methoxyethoxy)-1,5-naphthyridin-4-yl]oxy]phenyl]-1,2,6-trimethyl-4-oxopyridine-3-carboxamide] | ≤ 100 | > 300 |
| COc1cc2nccc(Oc3ccc(NC(=O)c4c5n(c(C)c(C6=CCOCC6)c4=O)CCOC5)cc3)c2nc1OC [Compound 73, 7-(3,6-Dihydro-2H-pyran-4-yl)-N-[4-[(6,7-dimethoxy-1,5-naphthyridin-4-yl)oxy]phenyl]-6-methyl-8-oxo-3,4-dihydro-1H-pyrido[2,1-c][1,4]oxazine-9-carboxamide] | ≤ 100 | > 300 |
| COc1nc2c(Oc3ccc(NC(=O)c4c(C)n(C)c(C)c(C5=CCCC5)c4=O)cc3F)ccnc2cc1OCCC1CCC1 [Compound 74, N-[4-[[7-(2-Cyclobutylethoxy)-6-methoxy-1,5-naphthyridin-4-yl]oxy]-3-fluorophenyl]-5-(cyclopenten-1-yl)-1,2,6-trimethyl-4-oxopyridine-3-carboxamide] | ≤ 100 | ≤ 100 |
| COc1cc2nccc(Oc3ccc(NC(=O)c4cnc(C)c(C5=CCCC5)c4O)cc3F)c2nc1OC [Compound G1-2, 5-(Cyclopenten-1-yl)-N-[4-[(6,7-dimethoxy-1,5-naphthyridin-4-yl)oxy]-3-fluorophenyl]-4-hydroxy-6-methylpyridine-3-carboxamide hydrochloride] | ≤ 100 | ≤ 100 |
| COc1cc2nccc(Oc3ccc(NC(=O)c4cnc(C)c(C5=CCCCC5)c4O)cc3F)c2nc1OC [Compound G1-3, 5-(Cyclohexen-1-yl)-N-[4-[(6,7-dimethoxy-1,5-naphthyridin-4-yl)oxy]-3-fluorophenyl]-4-hydroxy-6-methylpyridine-3-carboxamide] | ≤ 100 | ≤ 100 |
| COc1cc2nccc(Oc3ccc(NC(=O)c4c5n(cc(C6=CCCCC6)c4=O)CCOC5)cc3F)c2nc1OC [Compound G1-4, 7-(Cyclohexen-1-yl)-N-[4-[(6,7-dimethoxy-1,5-naphthyridin-4-yl)oxy]-3-fluorophenyl]-8-oxo-3,4-dihydro-1H-pyrido[2,1-c][1,4]oxazine-9-carboxamide] | ≤ 100 | ≤ 100 |
